This is an account of results in patent CN113813388A, “一种眼用纳米胶束及其制备方法和应用” (Zhejiang University ZJU, priority 2021, dated 2021).

The nature of series [1]: H2O2 (ROS) scavenging assay with hydrogen peroxide detection kit (S0038, Beyotime). The note with it: within 15 min; Tempo concentration 100 μg/mL-1; 500 μM H2O2 in 0.01 M PBS pH 7.4. The class given is biochemical.
The conditions of series [2]: after topical ocular administration; cited from earlier work.

Regarding `CC1(C)CCCC(C)(C)N1[O]` [Tempo], in series [1], the “eliminated H2O2” value is reported as 78.9%. In series [2], the “rapidly cleared, time after application” value is 15 to 30 s.
